Each structure is given as a SMILES string.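 Five concentrations, 48 hours, 96-well plates. The concentration for 50% growth inhibition is given as GI50.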 The source made the active and inactive calls. Cut-off read from the data, not from the text of the source: active = GI50 up to about 1.1 µM and inactive = higher. Where only a bound is given, the exact number is not on record here.

What all share (assay): inhibition of tumour cell growth, NCI panel, 48 h
The subject of assay [1] is EKVX.
Assay [2] relates to HCC 2998.
For assay [3], the system named is HCT-15.
For assay [4], the system named is HOP-62.
In assay [5] the test system is HOP-92.
Assay [6] relates to LOX IMVI.
Assay [7] deals with M14.
Assay [8] has as its system MDA-MB-435.
In assay [9] the test system is NCI-H226.
The test system of assay [10] is RPMI-8226.
For assay [11], the system named is SK-MEL-2.
The subject of assay [12] is SNB-75.
For assay [13], the system named is TK-10.
Assay [14] deals with UACC-62.
The subject of assay [15] is MOLT-4.
For assay [16], the system named is Malme-3M.
In assay [17] the test system is NCI-H522.
For assay [18], the system named is UACC-257.
For assay [19], the system named is CAKI-1.

As to `O=C1OC(c2ccccc2)N(C(=O)c2ccccc2)C1Cc1ccc(OCc2ccccc2)cc1` (centres undefined), the GI50 is 9.57 µM (inactive) in assay [1]; 21.8 µM (inactive) in assay [2]; over 100 µM in [3]; 9.42 µM (inactive) in assay [4]; 3.91 µM (inactive) in [5]; 8.11 µM (inactive) in assay [6]. The GI50 in assay [7] was > 100 µM (inactive); in [8], > 100 µM (inactive); in [9], > 100 µM (inactive); in assay [10], 87.5 µM (inactive); in assay [11], 31.1 µM (inactive); in assay [12] it was 15.7 µM (inactive). Also, the results for the GI50 in assay [13] and in [14] were 43.9 µM (inactive) and 8.11 µM (inactive), respectively.
With `CCOC1NC(=O)c2ccccc21` (centres undefined), the GI50 in assay [1] is > 100 µM (inactive); in assay [2], > 100 µM (inactive); in assay [3] it was over 100 µM; in assay [4], > 100 µM (inactive); in [5], > 100 µM (inactive); in assay [6], > 100 µM (inactive). Also, the GI50 in assay [7], in [8], in assay [15], in assay [16], in assay [9] and in [17] was > 100 µM (inactive) in each case. Besides, the GI50 in assay [10], in assay [12], in assay [13], in assay [18] and in assay [14] was > 100 µM (inactive) each time.
With `COc1ccc(NCn2nc(CCCCCCCCc3nn(CNc4ccc(OC)cc4)c(=S)o3)oc2=S)cc1`, the GI50 in assay [19] was > 100 µM (inactive); in assay [1], > 100 µM (inactive); in [2], > 100 µM (inactive); in [3], over 100 µM; in assay [4], > 100 µM (inactive); in assay [5] it was > 100 µM (inactive). Also, the GI50 in [7], in assay [8], in [15], in assay [16], in [9] and in assay [17] was > 100 µM (inactive) each time. The GI50 in assay [10], in assay [11], in assay [12], in [13], in assay [18] and in [14] was > 100 µM (inactive) each time.
In the case of `Cn1c2ccccc2n2c(=O)c(-c3ccc(Cl)cc3)nnc12`, the GI50 is > 100 µM (inactive) in [19]; > 100 µM (inactive) in assay [1]; > 100 µM (inactive) in assay [2]; over 100 µM in [3]; > 100 µM (inactive) in [5]; > 100 µM (inactive) in assay [6]. The GI50 in assay [7], in assay [8], in [15], in assay [16], in [9] and in assay [17] was > 100 µM (inactive) in each case. Moreover, the GI50 is 83.4 µM (inactive) in assay [11], > 100 µM (inactive) in assay [12], > 100 µM (inactive) in assay [13] and > 100 µM (inactive) in assay [18].
As to `CC(C)(Cc1ccccc1)Cc1cc(O)ccc1O`, the GI50 in assay [19] is 20.7 µM (inactive); in assay [1], 24.9 µM (inactive); in assay [2], 20 µM (inactive); in assay [3], 17.5 µM; in [4], 30.1 µM (inactive); in [5] it was 14.4 µM (inactive). Moreover, the GI50 was 13.3 µM (inactive) in assay [6]; 17.6 µM (inactive) in assay [7]; 17.2 µM (inactive) in assay [8]; 14.8 µM (inactive) in assay [15]; 16.8 µM (inactive) in assay [16]; 33.8 µM (inactive) in assay [9]. The GI50 in [17] is 4.93 µM (inactive); in assay [12], 23 µM (inactive); in assay [13] it was 36.2 µM (inactive); in assay [18] it was 13.9 µM (inactive); in assay [14], 23.7 µM (inactive).
`O=[As](O)(O)c1ccc2nc3cc([As](=O)(O)O)ccc3nc2c1`: the GI50 in assay [19] is > 100 µM (inactive); in [1] it was > 100 µM (inactive); in assay [2], > 100 µM (inactive); in assay [3], over 100 µM; in assay [4] it was > 100 µM (inactive); in [5], > 100 µM (inactive). For the same compound, the GI50 in assay [6], in assay [7], in [8], in [15], in assay [16] and in assay [9] was > 100 µM (inactive) throughout. For the same compound, the GI50 in [17], in assay [11], in [12], in assay [13], in [18] and in assay [14] was > 100 µM (inactive) each time.
For `CCCCCC[C@H]1CC(=O)C2CCCC[C@@]23CC[C@H](CCl)N13.CCCCCC[C@H]1CC(=O)C2CCCC[C@@]23C[C@H](Cl)CN13` (some centres undefined), the GI50 in [19] is 58.9 µM (inactive); in [1], 49.9 µM (inactive); in assay [2] it was > 100 µM (inactive); in assay [3], 60.3 µM; in assay [4] it was 91.6 µM (inactive); in assay [5], 24.2 µM (inactive). Besides, the GI50 in assay [7] was 29.2 µM (inactive); in [8], 57.8 µM (inactive); in assay [15], 10 µM (inactive); in assay [16], 55.3 µM (inactive); in [17], 17.9 µM (inactive); in assay [10] it was 20.7 µM (inactive). For the same compound, the GI50 was > 100 µM (inactive) in assay [11]; 27.8 µM (inactive) in assay [12]; 43.9 µM (inactive) in [13]; 43 µM (inactive) in assay [18]; 48.1 µM (inactive) in assay [14].
Take `C/C=C(/C)C(=O)O[C@H]1CCN2CC=C(COC(=O)[C@@](O)([C@H](C)OC)C(C)(C)O)[C@H]12`: the GI50 was > 100 µM (inactive) in [19]; > 100 µM (inactive) in [1]; > 100 µM (inactive) in [2]; over 100 µM in assay [3]; > 100 µM (inactive) in [4]; > 100 µM (inactive) in assay [5]. For the same compound, the GI50 in assay [6], in [7], in assay [8], in assay [15], in assay [9] and in [17] was > 100 µM (inactive) throughout. Besides, the GI50 in [10], in [11], in [12], in assay [13], in [18] and in assay [14] was > 100 µM (inactive) each time.
As for `C=C1CC(O)C2C(=C)C(=O)OC2C2C(C)C(=O)CC12` (centres undefined), the GI50 was 4.57 µM (inactive) in [19]; 15.4 µM (inactive) in assay [1]; 20 µM (inactive) in assay [2]; 4.82 µM in assay [3]; 19.8 µM (inactive) in assay [4]; 13 µM (inactive) in assay [5]. The GI50 in assay [6] was 20 µM (inactive); in [7], 11.8 µM (inactive); in [8], 11.3 µM (inactive); in assay [15] it was 7.03 µM (inactive); in assay [16] it was 12 µM (inactive); in [17], 5.16 µM (inactive). Moreover, the GI50 was 14 µM (inactive) in [10]; 18.9 µM (inactive) in assay [11]; 15.1 µM (inactive) in assay [12]; 4.82 µM (inactive) in assay [13]; 12.6 µM (inactive) in assay [18]; 15.3 µM (inactive) in assay [14].
In the case of `C[C@]12CC[C@H]3[C@@H](CC=C4C[C@@H](N5CCCC5)CC[C@@]43C)[C@@H]1C[C@H](N1CCOCC1)[C@@H]2O`, the GI50 in [19] is > 100 µM (inactive); in assay [1] it was > 100 µM (inactive); in [2], > 100 µM (inactive); in assay [3], over 100 µM; in assay [4], > 100 µM (inactive); in assay [5], > 100 µM (inactive). In addition, the GI50 in assay [6] was > 10 µM (inactive); in assay [7], > 10 µM (inactive); in assay [8], 61.2 µM (inactive); in assay [15] it was > 100 µM (inactive); in [16], > 100 µM (inactive); in assay [9], > 100 µM (inactive). Besides, the GI50 in [17], in assay [10], in assay [12], in assay [13], in assay [18] and in assay [14] was > 100 µM (inactive) throughout.
Turning to `CCCCCC/C=C\CCCCCCCCCC1=C(CN2CCN(C)CC2)C(=O)C=C(OC)C1=O`, the GI50 in assay [19] is 2.73 µM (inactive); in [1], 13.6 µM (inactive); in [2], 7.6 µM (inactive); in [3], 2.47 µM; in assay [4], 15.6 µM (inactive); in [5] it was 2.64 µM (inactive). In addition, the GI50 in assay [6] was 3.8 µM (inactive); in [7] it was 2.51 µM (inactive); in [8] it was 8.65 µM (inactive); in assay [15] it was 0.353 µM (active); in assay [16], 2.79 µM (inactive); in [9], 14.2 µM (inactive). In addition, the GI50 is 1.55 µM (inactive) in assay [17]; 2 µM (inactive) in assay [10]; 1.62 µM (inactive) in assay [12]; 2.92 µM (inactive) in assay [13]; 13.3 µM (inactive) in assay [18]; 12.9 µM (inactive) in assay [14].
